Key:
[1] = test system: captopril-treated saline-drinking SHRSP; assay: Angiotensin II-induced renal damage in captopril-treated saline-drinking SHRSP, Protocol 2 (Example A-8); format: in vivo, rat (SHRSP/A3N)
Protocol: Animals. Studies were conducted in accordance with institutional guidelines using male SHRSP/A3N (generations F-75 to F-78), n=37, from our local colony. These animals were bred from NIH stock, derived from the SHRSP/A3N substrain described originally by Okamoto and coworkers (Okamoto K et al. Circ. Res. 34 and 35 (suppl I):I-143-I-153.). All animals were housed in a room maintained on a 12:12-h light:dark-cycle and an ambient temperature of 22±1° C. in the Animal Care Facility at New York Medical College. Rats were weaned at 4 weeks of age and allowed free access to Purina Lab Chow 5001 (Ralston Purina, St. Louis, Mo.) and tap water until the initiation of experimental protocols.
SHRSP were placed on Stroke-Prone Rodent Diet (#39-288, Zeigler Bros Inc., Gardners, Pa.) and 1% NaCl drinking solution ad libitum starting at 8.3 weeks of age. […] Animals were handled and weighed daily. Urine samples were collected for the assessment of proteinuria. Systolic blood pressure and heart rate were measured each week. After 2 weeks of treatment, animals were decapitated, trunk blood was collected into chilled EDTA tubes, and the kidneys were removed, blotted dry, and immediately weighed. Coronal sections of kidney were fixed and later processed for light microscopic evaluation.
Assays and Analyses. Systolic blood pressure and heart rate of awake animals were measured by tail-cuff plethysmography using a Natsume KN-210 manometer and tachometer (Peninsula Laboratories Inc., Belmont, Calif.). Rats were warmed at 37° C. for 10 min and allowed to rest quietly in a Lucite chamber before measurement of blood pressure. Measurements of urine volume were made gravimetrically. Urinary protein concentration was determined by the sulfosalicylic acid turbidity method. Plasma aldosterone was measured by radioimmunoassay using ^125I-aldosterone as a tracer (Coat-a Count Aldosterone, Diagnostic Products Co., Los Angeles, Calif.).
Histology. Kidneys were preserved in 10% phosphate-buffered formalin. Coronal sections (2-3 μm) were stained with hematoxylin and eosin and examined by light microscopy in a blinded fashion as previously described (Stier C T et al. J Pharmacol Exp Ther (1992) 260:1410-1415). Glomerular damage was categorized as ischemic or thrombotic. Ischemic lesions were defined as retraction of glomerular capillary tufts with or without appreciable mesangiolysis. Glomerular thrombotic lesions were defined as any one of a combination of the following: segmental to global fibrinoid necrosis, focal thrombosis of glomerular capillaries, swelling and proliferation of intracapillary (endothelial and mesangial) and/or extracapillary cells (crescents), and expansion of reticulated mesangial matrix with or without significant hypercellularity. […] Vascular thrombotic lesions were defined as any one or a combination of the following: mural fibrinoid necrosis, extravasation and fragmentation of red blood cells, and luminal and/or mural thrombosis. Proliferative arteriopathy was characterized by proliferation of markedly swollen myointimal cells with swollen round to ovoid vesicular nuclei surrounded by mucinous extracellular matrix (“onion skinning”) often resulting in nodular thickening. Vascular damage was expressed as the number of arteries and arterioles with lesions per 100 glomeruli. The presence of casts and tubular (ischemic) retraction and simplification was assessed semiquantitatively.
Statistical Analysis. Significant effects with respect to treatment and time were determined by two-way analysis of variance. Data with only one grouping variable were analyzed statistically by Student's unpaired t tests. When more than two groups were compared, one-way analysis of variance was performed followed by the post-hoc Newman-Keul's multiple comparison test. Data were analyzed using version 2.01 of the GraphPad Prism statistical software package (GraphPad Software Inc., San Diego, Calif.). P<0.05 was considered statistically significant.

saline-drinking SHRSP = assay: Stroke and cerebrovascular damage in saline-drinking SHRSP (Example A-7); format: in vivo, rat; conditions: 100 mg/kg/day, up to 18.5 weeks of age
Description: Fifteen male, 9 weeks of age, saline-drinking SHRSP were included in the experiment. […] A-12). […] Using a semi-quantitative scoring system from 0-4 for cerebral injury (FIG.

[2] = test system: patients with mild-to-moderate hypertension; assay: Eplerenone versus enalapril in essential hypertension, 12-month titration-to-effect (Example D-3); format: in vivo, human
Protocol: The study design is illustrated in FIG. D-6. Patients with mild-to-moderate hypertension (diastolic blood pressure [DBP]≧95 mmHg and <110 mmHg) were randomized to receive initially EPL 50 mg QD (n=253) or ENAL 10 mg QD (n=246). If DBP ≧90 mmHg at Weeks 4, 8, 12, 16, or 20, the dose of study medication was up-titrated incrementally to EPL 100 mg and 200 mg QD, or ENAL 20 mg and 40 mg QD. […] At 24 wks and 12 months, changes in BP, RAAS hormone profile, urinary albumin excretion (urinary albumin: creatinine ratio [UACR]), laboratory tests, safety, and adverse events (AEs) were assessed.

[3] = test system: aortas of cholesterol-fed rabbits; assay: Endothelial function in diet induced atherosclerosis, aortic isometric tension and superoxide (Example A-10); format: in vivo, New Zealand white rabbits; conditions: 50 mg/kg twice daily by gavage, 6 weeks
Protocol: Methods: New Zealand white rabbits were randomized to four treatment groups. 32 Rabbits were placed on normal (NC) or 1% cholesterol chow (HC) for a duration of 8 weeks. […] Rabbits were euthanized at the end of 8 weeks and the aortas extracted for isometric tension studies and estimation of superoxide (O2^−) generation in vessel segments by lucigenin chemiluminescence (250 μM). Vessels were preconstricted with phenylephrine ([…]) to approximately 50% of peak constriction and dose responses to acetylcholine (Ach) and nitroglycerin (NTG) tested.

[4] = test system: saline-loaded adrenalectomized rats treated with aldosterone; assay: Antimineralocorticoid activity in saline-loaded adrenalectomized rats treated with aldosterone (Example A-2); format: in vivo
Protocol: Methods: The antimineralocorticoid pharmacological activity was determined in saline-loaded adrenalectomized rats treated with aldosterone. […] Urinary sodium, potassium and water excretion were measured.

[5] = captopril 50 mg/kg/d, angiotensin II 25 ng/min, eplerenone 100 mg/kg/d, 2 weeks
[6] = Week 24, EPL 50-200 mg QD, ENAL 10-40 mg QD titrated

Q: Which “Glomerular damage, Thrombotic” value [1, 5] does the source give for `COC(=O)[C@@H]1CC2=CC(=O)CC[C@]2(C)[C@@]23O[C@@H]2C[C@@]2(C)[C@@H](CC[C@@]24CCC(=O)O4)[C@H]13` [Eplerenone, Pregn-4-ene-7,21-dicarboxylic acid, 9,11-epoxy-17-hydroxy-3-oxo-, γ-lactone, methyl ester, (7α, 11α, 17β)-] here?
A: The value was 1.0 ± 0.3 lesions/100 glomeruli.

Q: And the plasma aldosterone concentration [1, 5]?
A: Its plasma aldosterone concentration is 231 ± 37 pg/mL.

Q: What about the renal damage ([1]; captopril + angiotensin II 25 ng/min, with eplerenone 100 mg/kg/d or vehicle) of the same molecule?
A: Its renal damage is 3±1%.

Q: What about the stroke signs (saline-drinking SHRSP) of the same molecule?
A: Its stroke signs is “no signs of stroke”.

Q: And the patients experiencing coughing ([2]; 12-month study)?
A: Its patients experiencing coughing is 2.4%.

Q: And the patients experiencing hyperglycemia ([2]; 12-month study)?
A: Its patients experiencing hyperglycemia is 0.0%.

Q: And the “patients experiencing urinary tract infections (UTI)” value ([2]; 12-month study)?
A: The value was 0.4%.

Q: What about the DBP change ([2]; 12 months) of the same molecule?
A: The DBP change was −13.3 mmHg.

Q: What about the SBP change ([2]; 12 months) of the same molecule?
A: Its SBP change is −16.5 mmHg.

Q: What about the DBP change [2, 6] of the same molecule?
A: The DBP change was −11.2 mmHg.

Q: What about the SBP change [2, 6] of the same molecule?
A: Its SBP change is −14.5 mmHg.

Q: What about the “reduction in UACR” value ([2]; Week 24, patients with baseline UACR ≧30 mg/g) of the same molecule?
A: The value was −61.5%.

Q: And the safety and tolerability ([2]; in vivo)?
A: Its safety and tolerability is “safe and well tolerated”.

Q: What about the “ED50 Ach” value ([3]; 1% cholesterol chow) of the same molecule?
A: Its value is 68 nM.

Q: And the “ED50 NTG” value ([3]; 1% cholesterol chow)?
A: Its value is 10 nM.

Q: And the “ED50 Ach” value ([3]; normal chow)?
A: Its value is 32 nM.

Q: And the “ED50 NTG” value ([3]; normal chow)?
A: Its value is 5.7 nM.

Q: What about the “Urinary Na/K ± SEM” value ([4]; aldosterone & antagonist 1 mg/kg by gavage) of the same molecule?
A: Its value is 2.53 ± 0.23.

Q: What about the “Urinary Na/K ± SEM” value ([4]; aldosterone & antagonist 3 mg/kg by gavage) of the same molecule?
A: Its value is 4.08 ± 0.26.

Q: What about the “Urinary Na/K ± SEM” value ([4]; aldosterone & antagonist 10 mg/kg by gavage) of the same molecule?
A: The value was 4.11 ± 0.27.

Source: patent US20070191324A1, “Methods for treatment or prophylaxis of aldosterone-mediated pathogenic effects in a subject using an epoxy-steroidal aldosterone antagonist” (priority 1999, published 2007)
